Reference: patent US20240317714A1, “3-[(1H-PYRAZOL-R-YL)OXY]PYRAZIN-2-AMINE COMPOUNDS AS HPK1 INHIBITOR AND USE THEREOF” (BeiGene, Ltd., priority 2020, published 2024)

Legend:
[1] = biological target: HPK1 kinase (aal-346. Life Technologies) (Homo sapiens (Human), UniProt Q92918); assay: HPK Kinase Activity Assay at 1 mM ATP (TR-FRET); assay type: biochemical; details: HPK1 kinase 40 nM, 0.5 μM STK1 substrate, read-out: Enzymatic activity IC50
[2] = test system: pSLP76(S376) level in Jurkat cell line; assay: Cellular pSLP76(S376) HTRF Assay; assay type: cell-based; details: Homo sapiens, Jurkat, Jurkat cells, 2 h compound treatment, stimulated with 0.05 μg/mL anti-human CD3 (OKT3) for 30 min

Chain of HPK1 kinase (aal-346. Life Technologies) (Q92918 1-346): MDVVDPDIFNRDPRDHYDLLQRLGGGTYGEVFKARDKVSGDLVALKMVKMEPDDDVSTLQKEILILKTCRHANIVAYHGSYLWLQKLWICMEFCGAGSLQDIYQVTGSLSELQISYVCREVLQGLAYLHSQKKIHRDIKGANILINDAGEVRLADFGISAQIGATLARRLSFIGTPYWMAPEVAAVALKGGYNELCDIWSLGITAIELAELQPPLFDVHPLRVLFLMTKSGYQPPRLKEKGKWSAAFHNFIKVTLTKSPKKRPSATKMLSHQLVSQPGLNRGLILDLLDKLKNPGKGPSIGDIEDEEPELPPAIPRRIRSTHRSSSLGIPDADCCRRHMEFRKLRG

IC50 [1]	IC50 [2]	SMILES
14 nM	62 nM	Cc1cc(-c2cnc(N)c(Oc3cnn(C4CCN(C)CC4)c3)n2)cc(C2(NS(=O)(=O)CC(F)(F)F)CC2)c1 [Example A25, N-(l-(3-(5-amino-6-((1-(1-methylpiperidin-4-yl)-H-pyrazol-4-yl)oxy)pyrazin-2-yl)-5-methylphenyl)cyclopropyl)-2,2,2-trifluoroethane-1-sulfonamide]
30 nM	82 nM	CNC(=O)NCc1c(C)cc(-c2cnc(N)c(Oc3cnn(C4CCN(C)CC4)c3)n2)cc1C [Example A26, 1-(4-(5-amino-6-((1-(1-methylpiperidin-4-yl)-1H-pyrazol-4-yl)oxy)pyrazin-2-yl)-2,6-dimethylbenzyl)-3-methylurea]
57 nM	81 nM	CCN1CCC(n2cc(Oc3nc(-c4cc(C)cc(S(=O)(=O)NC)c4)cnc3N)cn2)CC1 [Example A27, 3-(5-amino-6-((1-(1-ethylpiperidin-4-yl)-1H-pyrazol-4-yl)oxy)pyrazin-2-yl)-N,5-dimethylbenzenesulfonamide]
50 nM	97 nM	CNS(=O)(=O)c1cc(C)cc(-c2cnc(N)c(Oc3cnn(C4CCN(CC5COC5)CC4)c3)n2)c1 [Example A28, 3-(5-amino-6-((1-(1-(oxetan-3-ylmethyl)piperidin-4-yl)-1H-pyrazol-4-yl)oxy)pyrazin-2-yl)-N, 5-dimethylbenzenesulfonamide]
21 nM	97 nM	Cc1cc(-c2cnc(N)c(Oc3cnn(C4CCN(C)CC4)c3)n2)cc(C)c1C1COC(=O)N1 (stereo not shown) [Example A29, 4-(4-(5-amino-6-((1-(1-methylpiperidin-4-yl)-1H-pyrazol-4-yl)oxy)pyrazin-2-yl)-2,6-dimethylphenyl)oxazolidin-2-one]
111 nM	330 nM	CNS(=O)(=O)c1cc(-c2cnc(N)c(Oc3cnn(C4CCN(C)CC4)c3)n2)cc(C(C)(C)C)c1 [Example A30, 3-(5-amino-6-((1-(1-methylpiperidin-4-yl)-1H-pyrazol-4-yl)oxy)pyrazin-2-yl)-5-(tert-butyl)-N-methylbenzenesulfonamide]
34 nM	77 nM	Cc1cc(-c2cnc(N)c(Oc3cnn(C4CCN(C)CC4)c3)n2)cc(C)c1CNS(=O)(=O)C1CCOCC1 [Example A31, N-(4-(5-amino-6-((1-(1-methylpiperidin-4-yl)-1H-pyrazol-4-yl)oxy)pyrazin-2-yl)-2,6-dimethylbenzyl)tetrahydro-2H-pyran-4-sulfonamide]
30 nM	81 nM	Cc1cc(-c2cnc(N)c(Oc3cnn(C4CCN(C)CC4)c3)n2)cc(C)c1CNS(=O)(=O)C1CC1 [Example A32, N-(4-(5-amino-6-((1-(1-methylpiperidin-4-yl)-1H-pyrazol-4-yl)oxy)pyrazin-2-yl)-2,6-dimethylbenzyl)cyclopropanesulfonamide]
67 nM	102 nM	Cc1cc(-c2cnc(N)c(Oc3cnn(C4CCN(C)CC4)c3)n2)cc(C(F)F)c1C(=O)NCCN(C)C [Example A33, 4-(5-amino-6-((1-(1-methylpiperidin-4-yl)-1H-pyrazol-4-yl)oxy)pyrazin-2-yl)-2-(difluoromethyl)-N-(2-(dimethylamino)ethyl)-6-methylbenzamide]
47 nM	123 nM	Cc1cc(-c2cnc(N)c(Oc3cnn(C4CCN(C)CC4)c3)n2)cc(C)c1C1COCC(=O)N1 (stereo not shown) [Example A35, 5-(4-(5-amino-6-((1-(1-methylpiperidin-4-yl)-1H-pyrazol-4-yl)oxy)pyrazin-2-yl)-2,6-dimethylphenyl)morpholin-3-one]
22 nM	54 nM	CCNC(=O)NCc1c(C)cc(-c2cnc(N)c(Oc3cnn(C4CCN(C)CC4)c3)n2)cc1C [Example A36, 1-(4-(5-amino-6-((1-(1-methylpiperidin-4-yl)-1H-pyrazol-4-yl)oxy)pyrazin-2-yl)-2,6-dimethylbenzyl)-3-ethylurea]
17 nM	98 nM	Cc1cc(-c2cnc(N)c(Oc3cnn(C4CCN(C)CC4)c3)n2)cc(C)c1CNC(=O)NC1CCCC1 [Example A37, 1-(4-(5-amino-6-((1-(1-methylpiperidin-4-yl)-1H-pyrazol-4-yl)oxy)pyrazin-2-yl)-2,6-dimethylbenzyl)-3-cyclopentylurea]
37 nM	125 nM	Cc1cc(-c2cnc(N)c(Oc3cnn(C4CCN(C)CC4)c3)n2)cc(C)c1CNS(=O)(=O)c1ccccc1 [Example A38, N-(4-(5-amino-6-((1-(1-methylpiperidin-4-yl)-1H-pyrazol-4-yl)oxy)pyrazin-2-yl)-2,6-dimethylbenzyl)benzenesulfonamide]
35 nM	176 nM	COc1ccc(S(=O)(=O)NCc2c(C)cc(-c3cnc(N)c(Oc4cnn(C5CCN(C)CC5)c4)n3)cc2C)cc1 [Example A39, N-(4-(5-amino-6-((1-(1-methylpiperidin-4-yl)-1H-pyrazol-4-yl)oxy)pyrazin-2-yl)-2,6-dimethylbenzyl)-4-methoxybenzenesulfonamide]
33 nM	125 nM	Cc1cc(-c2cnc(N)c(Oc3cnn(C4CCN(C)CC4)c3)n2)cc(C)c1CNS(=O)(=O)C1CCCC1 [Example A40, N-(4-(5-amino-6-((1-(1-methylpiperidin-4-yl)-1H-pyrazol-4-yl)oxy)pyrazin-2-yl)-2,6-dimethylbenzyl)cyclopentanesulfonamide]
11 nM	101 nM	CNS(=O)(=O)c1cc(-c2cnc(N)c(Oc3cnn(C4CCN(C)CC4)c3)n2)cc(N2CCCCC2)c1 [Example A41, 3-(5-amino-6-((1-(1-methylpiperidin-4-yl)-1H-pyrazol-4-yl)oxy)pyrazin-2-yl)-N-methyl-5-(piperidin-1-yl)benzenesulfonamide]
19 nM	82 nM	CNS(=O)(=O)c1cc(-c2cnc(N)c(Oc3cnn(C4CCN(C)CC4)c3)n2)cc(N2CCOCC2)c1 [Example A42, 3-(5-amino-6-((1-(1-methylpiperidin-4-yl)-1H-pyrazol-4-yl)oxy)pyrazin-2-yl)-N-methyl-5-morpholinobenzenesulfonamide]
6 nM	26 nM	CNS(=O)(=O)c1cc(-c2cnc(N)c(Oc3cnn(C4CCN(C)CC4)c3)n2)cc(N2CCC[C@H]2C)c1 [Example A43, (R)-3-(5-amino-6-((1-(1-methylpiperidin-4-yl)-1H-pyrazol-4-yl)oxy)pyrazin-2-yl)-N-methyl-5-(2-methylpyrrolidin-1-yl)benzenesulfonamide]
9 nM	61 nM	Cc1cc(-c2cnc(N)c(Oc3cnn(C4CCN(C)CC4)c3)n2)cc(C)c1CNC(=O)c1ccccc1 [Example A44, N-(4-(5-amino-6-((1-(1-methylpiperidin-4-yl)-1H-pyrazol-4-yl)oxy)pyrazin-2-yl)-2,6-dimethylbenzyl)benzamide]
51 nM	119 nM	CC(=O)NCc1c(C)cc(-c2cnc(N)c(Oc3cnn(C4CCN(C)CC4)c3)n2)cc1C [Example A45, N-(4-(5-amino-6-((1-(1-methylpiperidin-4-yl)-1H-pyrazol-4-yl)oxy)pyrazin-2-yl)-2,6-dimethylbenzyl)acetamide]
51 nM	98 nM	Cc1cc(-c2cnc(N)c(Oc3cnn(C4CCN(C)CC4)c3)n2)ccc1CNS(C)(=O)=O [Example A46, N-(4-(5-amino-6-((1-(1-methylpiperidin-4-yl)-1H-pyrazol-4-yl)oxy)pyrazin-2-yl)-2-methylbenzyl)methanesulfonamide]
68 nM	183 nM	CNC(=O)NCc1ccc(-c2cnc(N)c(Oc3cnn(C4CCN(C)CC4)c3)n2)cc1C [Example A47, 1-(4-(5-amino-6-((1-(1-methylpiperidin-4-yl)-1H-pyrazol-4-yl)oxy)pyrazin-2-yl)-2-methylbenzyl)-3-methylurea]
50 nM	183 nM	Cc1cc(-c2cnc(N)c(Oc3cnn(C4CCN(C)CC4)c3)n2)cc(C)c1CNCC(F)(F)F [Example A48, 5-(3,5-dimethyl-4-(((2,2,2-trifluoroethyl)amino)methyl)phenyl)-3-((1-(1-methylpiperidin-4-yl)-1H-pyrazol-4-yl)oxy)pyrazin-2-amine]
11 nM	82 nM	CNS(=O)(=O)c1cc(-c2cnc(N)c(Oc3cnn(C4CCN(C)CC4)c3)n2)cc(N2CCOC[C@H]2C)c1 [Example A49, (R)-3-(5-amino-6-((1-(1-methylpiperidin-4-yl)-1H-pyrazol-4-yl)oxy)pyrazin-2-yl)-N-methyl-5-(3-methylmorpholino)benzenesulfonamide]
46 nM	101 nM	Cc1cc(-c2cnc(N)c(Oc3cnn(C4CCN(C)CC4)c3)n2)cc(C)c1CNC(=O)NCC(F)(F)F [Example A51, 1-(4-(5-amino-6-((1-(1-methylpiperidin-4-yl)-1H-pyrazol-4-yl)oxy)pyrazin-2-yl)-2,6-dimethylbenzyl)-3-(2,2,2-trifluoroethyl)urea]
70 nM	118 nM	Cc1cc(-c2cnc(N)c(Oc3cnn(C4CCN(C)CC4)c3)n2)cc(C(C)(C)O)c1 [Example A52, 2-(3-(5-amino-6-((1-(1-methylpiperidin-4-yl)-1H-pyrazol-4-yl)oxy)pyrazin-2-yl)-5-methylphenyl)propan-2-ol]
16 nM	63 nM	Cc1cc(-c2cnc(N)c(Oc3cnn(C4CCN(C)CC4)c3)n2)cc(C)c1CNC(=O)NC(C)(C)C [Example A53, 1-(4-(5-amino-6-((1-(1-methylpiperidin-4-yl)-1H-pyrazol-4-yl)oxy)pyrazin-2-yl)-2,6-dimethylbenzyl)-3-(tert-butyl)urea]
10 nM	33 nM	Cc1cc(-c2cnc(N)c(Oc3cnn(C4CCN(C)CC4)c3)n2)cc(C2(O)COC2)c1 [Example A54, 3-(3-(5-amino-6-((1-(1-methylpiperidin-4-yl)-1H-pyrazol-4-yl)oxy)pyrazin-2-yl)-5-methylphenyl)oxetan-3-ol]

SMILES	IC50 [1]	IC50 [2]
Cc1cc(-c2cnc(N)c(Oc3cnn(C4CCN(C)CC4)c3)n2)cc([Si](C)(C)O)c1 [Example A50, (3-(5-amino-6-((1-(1-methylpiperidin-4-yl)-1H-pyrazol-4-yl)oxy)pyrazin-2-yl)-5-methylphenyl)dimethylsilanol]	18 nM	95 nM
